The target of experiment [1] is T1, human EGFR (d746-750/T790M/C797S) (Homo sapiens, UniProt P00533, C797S/DEL746-750/T790M).
T1 construct: human EGFR (d746-750/T790M/C797S) (668-end, SignalChem); purchased SignalChem
Kind of experiment: EGFR C797S enzyme inhibition activity (ADP-Glo kinase assay). Type of experiment: biochemical. The conditions noted are these: purified enzyme 3 ng, ATP 5 μM, 25° C., 1 hour, luminescence; read-out: EGFR DTC Enzyme IC50. On the procedure:
<Experimental Example 1> Evaluation of EGFR C797S Enzyme Inhibition Activity
The compounds according to the present invention were reacted together with purified human EGFR (d746-750/T790M/C797S) (668-end, SignalChem) enzyme and a specific substrate and evaluated for enzyme inhibitory activity as described below. The reaction buffer consisted of 40 mM Tris-HCl pH 7.4, 20 mM MgCl2, 0.5 mg/ml BSA, and 50 μM DTT, and all reactions of the test substances were performed in reaction buffers. The compounds were serially diluted in 12 steps from a 10 mM DMSO stock, and the enzyme activity was measured at the final compound concentrations of 10, 3, 1, 0.3, 0.1, 0.03, 0.01, 0.003, 0.001, 0.0003, 0.0001, and 0 μM. In the assay, human EGFR (d746-750/T790M/C797S) (3 ng) enzyme was reacted with purified ATP (5 μM) and enzyme substrate (0.2 μg) at 25° C. for 1 hour, and the enzyme activity was determined using the in vitro ADP-Glo™ kinase assay (Promega). The enzyme activity inhibition was measured via luminescence by reacting the enzyme activity reaction solution, ADP-Glo reaction solution, and enzyme activity detection solution in a 2:2:1 ratio. Based on the luminescence of the enzyme activity of the solvent control group that was not treated with the compound, the degree of the enzyme activity inhibition depending on the treatment concentration of each compound was calculated, wherein the concentration of each compound that inhibited the enzyme activity by 50% was determined as the IC50 (nM) value, which was obtained using GraphPad Prism 8.4.3 (GraphPad software Inc., San Diego).

Experiment [2] concerns Ba/F3 expressing EGFR Del19/T790M/C797S mutations. Kind of experiment: Inhibitory activity on proliferation of Ba/F3 cell overexpressing EGFR C797S (Cell Titer-Glo). Type of experiment: cell-based. To be noted: Mus musculus, BaF3; 72 hours treatment, cell growth rate vs control; read-out: Ba/F3 (EGFR DTC) GI50. As for the experimental part: <Experimental Example 2> Evaluation of Inhibitory Activity on Proliferation of Ba/F3 Cell Overexpressing EGFR C797S
The following experiments were performed to evaluate the inhibitory activity of the compounds according to the present invention on the proliferation of Ba/F3 expressing EGFR Del19/T790M/C797S mutations.
Ba/F3 cells were cultured in RPMI-1640 medium supplemented with 10% fetal bovine serum (FBS), and 3000 cells were seeded into each well of a white clear bottom 96 well plate (Corning) 24 hours prior to compound treatment. The compounds were diluted in dimethyl sulfoxide (3-fold dilution, total of 12 concentrations) and injected at 1 μl each so that the final concentration was […] to 5 μM. After 72 hours post treatment with compounds, living cells were reacted in a 37° C., CO2 incubator for […], followed by 10 minutes at room temperature using Cell Titer-Glo luminescent cell-viability reagent (Promega), and the luminescence intensity thereof was measured using a reader (SynergyNeo2, Biotek). The result values were calculated as a cell growth rate (%) compared to the control group. GI50 values were calculated using the GraphPad Prism version 8.4.3 (GraphPad software Inc., San Diego) program.

Results on 19 compounds are retold here after patent US20250345329A1, “HETEROARYL DERIVATIVE COMPOUND AND USES THEREOF” (VORONOI, INC., priority 2022, published 2025).

T1 sequence (P00533 with tags, fused parts or gaps DEL746-750/T790M/C797S): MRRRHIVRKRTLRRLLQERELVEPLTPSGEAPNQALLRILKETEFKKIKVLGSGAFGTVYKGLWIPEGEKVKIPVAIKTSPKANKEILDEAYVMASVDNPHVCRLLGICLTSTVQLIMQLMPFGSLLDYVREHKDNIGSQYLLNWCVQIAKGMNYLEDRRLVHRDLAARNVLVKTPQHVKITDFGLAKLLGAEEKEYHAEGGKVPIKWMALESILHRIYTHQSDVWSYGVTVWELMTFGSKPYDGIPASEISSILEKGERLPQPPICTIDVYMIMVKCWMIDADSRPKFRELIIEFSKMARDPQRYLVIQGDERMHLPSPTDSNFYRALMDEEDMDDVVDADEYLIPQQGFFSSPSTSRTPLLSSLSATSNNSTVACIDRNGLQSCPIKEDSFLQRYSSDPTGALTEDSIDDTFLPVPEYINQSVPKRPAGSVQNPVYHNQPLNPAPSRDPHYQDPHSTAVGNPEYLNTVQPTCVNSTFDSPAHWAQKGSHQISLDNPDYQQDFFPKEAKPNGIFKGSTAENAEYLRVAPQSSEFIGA

Regarding `CC(C)Nc1cc(Nc2ccnc(-c3cnn(S(=O)(=O)C4CC4)c3)n2)ncc1C(=O)NCCN1CCOCC1` [Example 83, 6-((2-(1-(cyclopropylsulfonyl)-1H-pyrazol-4-yl)pyrimidin-4-yl)amino)-4-(isopropylamino)-N-(2-morpholinoethyl)nico-tinamide], in experiment [1], the IC50 was less than 50 nM. Besides, the GI50 in experiment [2] is less than 500 nM.
In the case of `CC(C)Nc1cc(Nc2ccnc(-c3cnn(S(=O)(=O)C4CC4)c3)n2)ncc1C(=O)NCc1ccc(C#N)cc1` [Example 55, N-(4-cyanobenzyl)-6-((2-(1-(cyclopropylsulfonyl)-1H-pyrazol-4-yl)pyrimidin-4-yl)amino)-4-(isopropylamino)nico-tinamide], in experiment [1], the IC50 lay in the range of 50 to 500 nM. Also, in experiment [2], the GI50 is 500 to 5000 nM.
Turning to `CC(C)Nc1cc(Nc2ccnc(-c3cnn(S(=O)(=O)C4CC4)c3)n2)ncc1C(=O)NCCCN(C)C(=O)OC(C)(C)C` [Example 58, tert-butyl (3-(6-((2-(1-(cyclopropylsulfonyl)-1H-pyrazol-4-yl)pyrimidin-4-yl)amino)-4-(isopropylamino)nico-tinamido)propyl)(meth-yl)carbamate], in experiment [1], the IC50 fell in the range of 50 to 500 nM. For the same compound, in experiment [2], the GI50 lay in the range of 500 to 5000 nM.
Take `CC(C)Nc1cc(Nc2ccnc(-c3cnn(S(=O)(=O)C4CC4)c3)n2)ncc1C(=O)NCC(F)(F)F` [Example 78, 6-((2-(1-(cyclopropylsulfonyl)-1H-pyrazol-4-yl)pyrimidin-4-yl)amino)-4-(isopropylamino)-N-(2,2,2-trifluoroethyl)nicotin-amide]: the IC50 in experiment [1] is less than 50 nM. For the same compound, the GI50 in experiment [2] lay within 500 to 5000 nM.
On the same counts, the results for `CC(C)Nc1cc(Nc2ccnc(-c3cnn(S(=O)(=O)C4CC4)c3)n2)ncc1C(=O)NCC1CCCO1` (centres unmarked) [Example 62, 6-((2-(1-(cyclopropylsulfonyl)-1H-pyrazol-4-yl)pyrimidin-4-yl)amino)-4-(isopropylamino)-N-((tetrahydrofuran-2-yl)methyl)nicotin-amide] are less than 50 nM and less than 500 nM.
Turning to `CC(C)Nc1cc(Nc2ccnc(-c3cnn(S(=O)(=O)C4CC4)c3)n2)ncc1C(=O)NCCCC(F)(F)F` [Example 81, 6-((2-(1-(cyclopropylsulfonyl)-1H-pyrazol-4-yl)pyrimidin-4-yl)amino)-4-(isopropylamino)-N-(4,4,4-trifluorobutyl)nicotin-amide], in experiment [1], the IC50 is less than 50 nM. In addition, the GI50 in experiment [2] was less than 500 nM.
Regarding `C[C@H]1CCOc2c(cnn2C)-c2nccc(n2)Nc2cc(c(C(=O)Nc3cccc(N4CCN(C)CC4)c3)cn2)N1` [Example 100, (S)-1^1,6-dimethyl-N-(3-(4-methylpiperazin-1-yl)phenyl)-1^1H-9-oxa-3,5-diaza-2(2,4)-pyrimidina-4(2,4)-pyridina-1(4.5)-pyrazolacyclo-nonaphane-4^5-carboxamide], in experiment [1], the IC50 is less than 50 nM. Further, the GI50 in experiment [2] was less than 500 nM.
In the same order, the values of `C[C@H]1CCOc2c(cnn2C)-c2nccc(n2)Nc2cc(c(C(=O)NC(CCN(C)C)c3ccccc3)cn2)N1` (stereo partly drawn) [Example 120, (6S)-N-(3-(dimethylamino)-1-phenylpropyl)-1^1,6-dimethyl-1^1H-9-oxa-3,5-diaza-2(2,4)-pyrimidina-4(2,4)-pyridina-1(4,5)-pyrazolacyclo-nonaphane-4^5-carboxamide] are less than 50 nM and 500 to 5000 nM.
In the same order, the values of `CC(C)Nc1cc(Nc2ccnc(-c3cnn(S(=O)(=O)C4CC4)c3)n2)ncc1C(=O)NC(CCN(C)C)c1ccccc1` (centres unmarked) [Example 53, 6-((2-(1-(cyclopropylsulfonyl)-1H-pyrazol-4-yl)pyrimidin-4-yl)amino)-N-(3-(dimethylamino)-1-phenylpropyl)-4-(isopropylamino)nico-tinamide] are less than 50 nM and 500 to 5000 nM.
In the same order, the values of `CC(C)Nc1cc(Nc2ccnc(-c3cnn(S(=O)(=O)C4CC4)c3)n2)ncc1C(=O)NCCCS(C)(=O)=O` [Example 64, 6-((2-(1-(cyclopropylsulfonyl)-1H-pyrazol-4-yl)pyrimidin-4-yl)amino)-4-(isopropylamino)-N-(3-(methyl-sulfonyl)propyl) nicotinamide] are 50 to 500 nM and 500 to 5000 nM.
On to `CO[C@H]1CCN(c2nccc(Nc3cc(NC(C)C)c(C(=O)Nc4cc(N5CCN(C)CC5)cc(C(C)(C)C#N)c4)cn3)n2)C[C@H]1F` (relative stereo) [Example 42, N-(3-(2-cyanopropan-2-yl)-5-(4-methylpiperazin-1-yl)phenyl)-6-((2-(cis-3-fluoro-4-methoxypiperidin-1-yl)pyrimidin-4-yl)amino)-4-(isopropylamino)nico-tinamide], for which, in experiment [1], the half-inhibitory concentration (IC50) is less than 50 nM. Also, the GI50 in experiment [2] lay in the range of 500 to 5000 nM.
Turning to `COC(=O)CCNC(=O)c1cnc(Nc2ccnc(N3CC[C@H](OC)[C@H](F)C3)n2)cc1NC(C)C` (relative stereo) [Example 97, methyl 3-(6-((2-(cis-3-fluoro-4-methoxypiperidin-1-yl)pyrimidin-4-yl)amino)-4-(isopropylamino)nico-tinamido)propanoate], the IC50 in experiment [1] was less than 50 nM. In experiment [2], the GI50 lay within 500 to 5000 nM.
In the same order, the values of `CC(C)Nc1cc(Nc2ccnc(-c3cnn(S(=O)(=O)C4CC4)c3)n2)ncc1C(=O)N[C@@H](C(C)C)C(F)(F)F` [Example 79, (S)-6-((2-(1-(cyclopropylsulfonyl)-1H-pyrazol-4-yl)pyrimidin-4-yl)amino)-4-(isopropylamino)-N-(1,1,1-trifluoro-3-methylbutan-2-yl)nicotinamide] are 50 to 500 nM and 500 to 5000 nM.
Take `CO[C@H]1CCN(c2nccc(Nc3cc(NC4CCCC4)c(C(=O)N4CC(CS(C)(=O)=O)C4)cn3)n2)C[C@H]1F` (relative stereo) [Example 13, (4-(cyclopentylamino)-6-((2-(cis-3-fluoro-4-methoxypiperidin-1-yl)pyrimidin-4-yl)amino)pyridin-3-yl)(3-((methylsulfonyl)meth-yl)azetidin-1-yl)methanone]: the IC50 in experiment [1] fell in the range of 50 to 500 nM. For the same compound, the GI50 in experiment [2] lay in the range of 500 to 5000 nM.
As to `CC(C)Nc1cc(Nc2ccnc(-c3cnn(S(=O)(=O)C4CC4)c3)n2)ncc1C(=O)NC(CN(C)C)c1ccccc1` (centres unmarked) [Example 70, 6-((2-(1-(cyclopropylsulfonyl)-1H-pyrazol-4-yl)pyrimidin-4-yl)amino)-N-(2-(dimethylamino)-1-phenylethyl)-4-(isopropylamino)nico-tinamide], in experiment [1], the IC50 was less than 50 nM. The GI50 in experiment [2] is 500 to 5000 nM.
With `CO[C@H]1CCN(c2nccc(Nc3cc(NC4CCNC4)c(C(=O)N4CC(CS(C)(=O)=O)C4)cn3)n2)C[C@H]1F` (relative stereo) [Example 15, (6-((2-(cis-3-fluoro-4-methoxypiperidin-1-yl)pyrimidin-4-yl)amino)-4-(pyrrolidin-3-ylamino)pyridin-3-yl)(3-((methylsulfonyl)meth-yl)azetidin-1-yl)methanone], the IC50 in experiment [1] was 50 to 500 nM. Besides, the GI50 in experiment [2] was 500 to 5000 nM.
As for `CC(C)Nc1cc(Nc2ccnc(-c3cnn(S(=O)(=O)C4CC4)c3)n2)ncc1C(=O)Nc1cnn(S(=O)(=O)C2CC2)c1` [Example 32, N-(1-(cyclopropylsulfonyl)-1H-pyrazol-4-yl)-6-((2-(1-(cyclopropylsulfonyl)-1H-pyrazol-4-yL)pyrimidin-4-yl)amino)-4-(isopropylamino)nico-tinamide], the IC50 in experiment [1] lay within 50 to 500 nM. Also, the GI50 in experiment [2] was 500 to 5000 nM.
For the compound `CC(C)Nc1cc(Nc2ccnc(-c3cnn(S(=O)(=O)C4CC4)c3)n2)ncc1C(=O)Nc1cccc(N2CCN(C)CC2)c1` [Example 39, 6-((2-(1-(cyclopropylsulfonyl)-1H-pyrazol-4-yl)pyrimidin-4-yl)amino)-4-(isopropylamino)-N-(3-(4-methylpiperazin-1-yl)phenyl)nicotinamide], the IC50 in experiment [1] was less than 50 nM. The GI50 in experiment [2] lay within 500 to 5000 nM.
Turning to `CO[C@H]1CCN(c2nccc(Nc3cc(NC(C)C)c(C(=O)N4CC(C#N)C4)cn3)n2)C[C@H]1F` (relative stereo) [Example 17, 1-(6-((2-(cis-3-fluoro-4-methoxypiperidin-1-yl)pyrimidin-4-yl)amino)-4-(isopropylamino)nico-tinoyl)azetidine-3-carbonitrile], in experiment [1], the IC50 is less than 50 nM. The GI50 in experiment [2] was 500 to 5000 nM.
